Where a name gives a salt, the structure may show the parent alone.
system: ICR CD strain male mice; test: Gastric emptying enhancing activity (phenol red meal); type: in vivo; settings: Mus musculus, ip, 0.25 h, 3.0 mg/kg i.p., gastric emptying at 15 min after test meal, increase vs vehicle
Description: ICR CD strain male mice (body weight, 25˜30 g; 8 mice per one group) were fasted for 24 h but allowed free access to water until 3 hours before the test.
Compounds to be tested for promoting GI motility were injected intraperitoneally or given orally at 30 min or 60 min prior to phenol red meal administration. Fifteen (15) min after administration of a test meal (0.5% Phenol red in 1.5% methylcellulose solution), mice were sacrificed and the stomach (pylorus˜cardia) was removed and collected to vial. The stomach was homogenized with its contents in 0.1N NaOH and the mixture was centrifuged (700*g) for 20 min. 2.5 mL of the supernatant was added to 0.25 mL of trichloroacetic acid solution (20% w/v) to precipitate proteins. After centrifuging (2600*g) for 20 min, 0.5 mL of the supernatant was added to 0.25 mL of 1N NaOH. The mixture was homogenized and its absorbance (Abs) was read at 560 nm.
In each experiment, one group was sacrificed just after the administration of the test meal and was considered as a standard (0% emptying). The gastric emptying (GE) at the 15 min period was calculated according to the following formula. GE (%)=(1−Abstest/Absstandard)×100 Increase (%)=(GE %test−GE %vehicle)/GE %vehicle*100

Row | Compound | change in vivo at 3 mg/kg
1 | COc1ccc(OCC(CN2CCC(CNC(=O)n3c(=O)n(C(C)C)c4ccccc43)CC2)NC(=O)O)cc1 (centres unmarked) [Example 121, [1-(4-methoxyphenoxy)-3-[4-[[(2-oxo-3-propan-2-ylbenzimidazole-1-carbonyl)amino]methyl]piperidin-1-yl]propan-2-yl]carbamate; hydrochloride] | 46.8%
2 | COc1cccc(C(O)CN2CCC(CNC(=O)c3cc(Cl)c(N)cc3OC)CC2)c1 (centres unmarked) [Example 9, 4-amino-5-chloro-N-[[1-[2-hydroxy-2-(3-methoxyphenyl)ethyl]piperidin-4-yl]methyl]-2-methoxybenzamide; hydrochloride] | 55.8%
3 | COc1cc(N)c(Cl)cc1C(=O)NCC1CCN(CCC(O)c2ccc(C)cc2)CC1 (centres unmarked) [Example 39, 4-amino-5-chloro-N-[[1-[3-hydroxy-3-(4-methylphenyl)propyl]piperidin-4-yl]methyl]-2-methoxybenzamide; hydrochloride] | 40%
4 | COc1cc(N)c(Cl)cc1C(=O)NCC1CCN(CC(NC(=O)O)c2ccccc2Cl)CC1 (centres unmarked) [Example 29, [2-[4-[[(4-amino-5-chloro-2-methoxybenzoyl)amino]methyl]piperidin-1-yl]-1-(2-chlorophenyl)ethyl]carbamate; hydrochloride] | 61.3%
5 | COc1cc(N)c(Cl)cc1C(=O)NCC1CCN(CC(O)c2ccc(F)c(F)c2)CC1 (centres unmarked) [Example 17, 4-amino-5-chloro-N-[[1-[2-(3,4-difluorophenyl)-2-hydroxyethyl]piperidin-4-yl]methyl]-2-methoxybenzamide; hydrochloride] | 22.1%
6 | COc1cc(N)c(Cl)cc1C(=O)NCC1CCN(CC(O)c2ccc(C#N)cc2)CC1 (centres unmarked) [Example 5, 4-amino-5-chloro-N-[[1-[2-(4-cyanophenyl)-2-hydroxyethyl]piperidin-4-yl]methyl]-2-methoxybenzamide; hydrochloride] | 76.1%
7 | COc1cc(N)c(Cl)cc1C(=O)NCC1CCN(CC(O)c2ccc(OC(F)F)cc2)CC1 (centres unmarked) [Example 16, 4-amino-5-chloro-N-[[1-[2-[4-(difluoromethoxy)phenyl]-2-hydroxyethyl]piperidin-4-yl]methyl]-2-methoxybenzamide; hydrochloride] | 53.6%
8 | COc1cc(N)c(Cl)cc1C(=O)NCC1CCN(CC(NC(=O)O)c2ccc(C)cc2)CC1 (centres unmarked) [Example 24, [2-[4-[[(4-amino-5-chloro-2-methoxybenzoyl)amino]methyl]piperidin-1-yl]-1-(4-methylphenyl)ethyl]carbamate; hydrochloride] | 71.1%
9 | COc1cc(N)c(Cl)cc1C(=O)NCC1CCN(CCC(O)c2ccccc2)CC1 (centres unmarked) [Example 36, 4-amino-5-chloro-N-[[1-(3-hydroxy-3-phenylpropyl)piperidin-4-yl]methyl]-2-methoxybenzamide; hydrochloride] | 55.2%
10 | COc1ccc(OCC(O)CN2CCC(CNC(=O)c3cc(Cl)c(N)cc3OC)CC2)cc1 (centres unmarked) [Example 74, 4-amino-5-chloro-N-[[1-[2-hydroxy-3-(4-methoxyphenoxy)propyl]piperidin-4-yl]methyl]-2-methoxybenzamide; hydrochloride] | 46.7%
11 | COc1cc(N)c(Cl)cc1C(=O)NCC1CCN(CCC(O)CCc2ccc(F)cc2)CC1 (centres unmarked) [Example 52, 4-amino-5-chloro-N-[[1-[5-(4-fluorophenyl)-3-hydroxypentyl]piperidin-4-yl]methyl]-2-methoxybenzamide; hydrochloride] | 131%
12 | COc1cc(N)c(Cl)cc1C(=O)NCC1CCN(CC(Cc2ccccc2)NC(=O)O)CC1 (centres unmarked) [Example 103, [1-[4-[[(4-amino-5-chloro-2-methoxybenzoyl)amino]methyl]piperidin-1-yl]-3-phenylpropan-2-yl]carbamate; hydrochloride] | 88.8%
13 | O=C(NCC1CCN(CCC(O)c2ccccc2)CC1)n1c(=O)n(C2CC2)c2ccccc21 (centres unmarked) [Example 135, 3-cyclopropyl-N-[[1-(3-hydroxy-3-phenylpropyl)piperidin-4-yl]methyl]-2-oxobenzimidazole-1-carboxamide; hydrochloride] | 90.3%
14 | COc1cc(N)c(Cl)cc1C(=O)NCC1CCN(CC(COc2ccc(Cl)c(Cl)c2)NC(=O)O)CC1 (centres unmarked) [Example 99, [1-[4-[[(4-amino-5-chloro-2-methoxybenzoyl)amino]methyl]piperidin-1-yl]-3-(3,4-dichlorophenoxy)propan-2-yl]carbamate; hydrochloride] | 47.5%
15 | COc1cc(N)c(Cl)cc1C(=O)NCC1CCN(CC(O)COc2ccccc2)CC1 (centres unmarked) [Example 71, 4-amino-5-chloro-N-[[1-(2-hydroxy-3-phenoxypropyl)piperidin-4-yl]methyl]-2-methoxybenzamide; hydrochloride] | 63.7%
16 | COc1cc(N)c(Cl)cc1C(=O)NCC1CCN(CCC(NC(=O)O)c2ccccc2Cl)CC1 (centres unmarked) [Example 56, [3-[4-[[(4-amino-5-chloro-2-methoxybenzoyl)amino]methyl]piperidin-1-yl]-1-(2-chlorophenyl)propyl]carbamate; hydrochloride] | 135%
17 | COc1cc(N)c(Cl)cc1C(=O)NCC1CCN(CCC(NC(=O)O)c2ccc(Cl)cc2Cl)CC1 (centres unmarked) [Example 60, [3-[4-[[(4-amino-5-chloro-2-methoxybenzoyl)amino]methyl]piperidin-1-yl]-1-(2,4-dichlorophenyl)propyl]carbamate; hydrochloride] | 14.2%
18 | COc1cc(N)c(Cl)cc1C(=O)NCC1CCN(CCC(O)c2ccccc2Cl)CC1 (centres unmarked) [Example 41, 4-amino-5-chloro-N-[[1-[3-(2-chlorophenyl)-3-hydroxypropyl]piperidin-4-yl]methyl]-2-methoxybenzamide; hydrochloride] | 24.3%
19 | COc1cc(N)c(Cl)cc1C(=O)NCC1CCN(CCC(O)c2cccc(Cl)c2)CC1 (centres unmarked) [Example 42, 4-amino-5-chloro-N-[[1-[3-(3-chlorophenyl)-3-hydroxypropyl]piperidin-4-yl]methyl]-2-methoxybenzamide; hydrochloride] | 42.7%
20 | COc1cc(N)c(Cl)cc1C(=O)NCC1CCN(CCC(NC(=O)O)c2ccc(F)cc2)CC1 (centres unmarked) [Example 54, [3-[4-[[(4-amino-5-chloro-2-methoxybenzoyl)amino]methyl]piperidin-1-yl]-1-(4-fluorophenyl)propyl]carbamate; hydrochloride] | 89.2%
21 | Cn1c(=O)n(C(=O)NCC2CCN(CC(COc3ccccc3)NC(=O)O)CC2)c2ccccc21 (centres unmarked) [Example 126, [1-[4-[[(3-methyl-2-oxobenzimidazole-1-carbonyl)amino]methyl]piperidin-1-yl]-3-phenoxypropan-2-yl]carbamate; hydrochloride] | 93.3%
22 | COc1cc(N)c(Cl)cc1C(=O)NCC1CCN(CC(O)c2ccccc2Cl)CC1 (centres unmarked) [Example 13, 4-amino-5-chloro-N-[[1-[2-(2-chlorophenyl)-2-hydroxyethyl]piperidin-4-yl]methyl]-2-methoxybenzamide; hydrochloride] | 14%
23 | COc1cc(N)c(Cl)cc1C(=O)NCC1CCN(CC(COc2ccc(F)cc2)OC(=O)N2CC(C)CC(C)C2)CC1 (centres unmarked) [Example 89, [1-[4-[[(4-amino-5-chloro-2-methoxybenzoyl)amino]methyl]piperidin-1-yl]-3-(4-fluorophenoxy)propan-2-yl]3,5-dimethylpiperidine-1-carboxylate; hydrochloride] | 45.3%
24 | COc1cc(N)c(Cl)cc1C(=O)NCC1CCN(CC(COc2ccc(Cl)cc2Cl)NC(=O)O)CC1 (centres unmarked) [Example 96, [1-[4-[[(4-amino-5-chloro-2-methoxybenzoyl)amino]methyl]piperidin-1-yl]-3-(2,4-dichlorophenoxy)propan-2-yl]carbamate; hydrochloride] | 105%
25 | COc1cc(N)c(Cl)cc1C(=O)NCC1CCN(CCC(NC(=O)O)c2ccccc2)CC1 (centres unmarked) [Example 53, [3-[4-[[(4-amino-5-chloro-2-methoxybenzoyl)amino]methyl]piperidin-1-yl]-1-phenylpropyl]carbamate; hydrochloride] | 28.4%
26 | COc1cc(N)c(Cl)cc1C(=O)NCC1CCN(CCC(O)c2ccc(Cl)cc2Cl)CC1 (centres unmarked) [Example 46, 4-amino-5-chloro-N-[[1-[3-(2,4-dichlorophenyl)-3-hydroxypropyl]piperidin-4-yl]methyl]-2-methoxybenzamide; hydrochloride] | 45.9%
27 | COc1cc(N)c(Cl)cc1C(=O)NCC1CCN(CC(NC(=O)O)c2ccc(OC(F)F)cc2)CC1 (centres unmarked) [Example 32, [2-[4-[[(4-amino-5-chloro-2-methoxybenzoyl)amino]methyl]piperidin-1-yl]-1-[4-(difluoromethoxy)phenyl]ethyl]carbamate; hydrochloride] | 40%
28 | COc1cc(N)c(Cl)cc1C(=O)NCC1CCN(CC(O)COc2ccc(C(F)(F)F)cc2)CC1 (centres unmarked) [Example 83, 4-amino-5-chloro-N-[[1-[2-hydroxy-3-[4-(trifluoromethyl)phenoxy]propyl]piperidin-4-yl]methyl]-2-methoxybenzamide; hydrochloride] | 42.5%
29 | Cn1c(=O)n(C(=O)NCC2CCN(CC(O)COc3ccccc3)CC2)c2ccccc21 (centres unmarked) [Example 111, N-[[1-(2-hydroxy-3-phenoxypropyl)piperidin-4-yl]methyl]-3-methyl-2-oxobenzimidazole-1-carboxamide; hydrochloride] | 37.2%

Source: patent US10144709B2, “Piperidine compounds, pharmaceutical composition comprising the same and its use” (SK BIOPHARMACEUTICALS CO., LTD., priority 2008, dated 2018)
